In ChEMBL document CHEMBL1151000, “Novel synthetic rotenoids with blocked B/C ring systems” (Bioorg Med Chem Lett, 1992) one finds IC50 and LD50 data, which are given here for five compounds.

The nature of data set [1]: The compound was evaluated for the inhibition of NADH dehydrogenase.
The nature of data set [2]: The compound was evaluated for the insecticidal activity against housefly without cytochrome P450 oxidase inhibitor piperonyl butoxide. Conditions: musca domestica.
Data set [3] can be described thus: The compound was evaluated for the insecticidal activity against housefly with cytochrome P450 oxidase inhibitor piperonyl butoxide. The note with it: musca domestica. It counts as ADME.

Consider `COc1cc2c(cc1OC)[C@]1(C)C(=O)c3ccc4c(c3O[C@@H]1CO2)C[C@H](C(C)C)O4`, for which the concentration for half-maximal inhibition (IC50) – broadly, the concentration that gives 50% inhibition – in data set [1] is 16 nM.

For the compound `C=C(C)[C@H]1Cc2c(ccc3c2O[C@@H]2COc4cc(OC)c(OC)cc4[C@@]2(C)C3=O)O1.C=C(C)[C@H]1Cc2c(ccc3c2O[C@H]2COc4cc(OC)c(OC)cc4[C@]2(C)C3=O)O1`, the LD50 is recorded as over 10 ug fly-1 in data set [2] and 4 ug fly-1 in data set [3]. In data set [1], this compound registered an IC50 of 360 nM.

Regarding `C=C(C)[C@H]1Cc2c(ccc3c2O[C@@H]2COc4cc(OC)c(OC)cc4[C@]2(C)C3=O)O1`, the results for the LD50 in data set [2] and in data set [3] were 2 ug fly-1 and 0.2 ug fly-1, respectively. This compound displayed a half-maximal inhibitory concentration (IC50) in data set [1] of 17 nM.

`C=C(C)[C@H]1Cc2c(ccc3c2OC24COc5cc(OC)c(OC)cc5C2(C4)C3=O)O1` (some centres not stated) showed an IC50 in data set [1] of 80 nM. In addition, the LD50 in data set [3] is 10 ug fly-1.

Regarding `C=C(C)[C@H]1Cc2c(ccc3c2O[C@@H]2COc4cc(OC)c(OC)cc4[C@@H]2C3=O)O1` [ROTENONE], the figures for the LD50 in data set [2] and in data set [3] were 10 ug fly-1 and 5 ug fly-1, respectively. Moreover, the 50% inhibitory concentration (IC50) in data set [1] is 3.5 nM.
